Source: US20190298840A1, “FORMULATIONS COMPRISING HETEROCYCLIC RING SYSTEMS AND USES THEREOF” (Particle Sciences, Inc., priority 2016, published 2019)
pKd: −log10 of the molar value.

How the values were obtained:
Immunoglobulin G (IgG) = assay: Microscale thermophoresis binding affinity with IgG (Monolith NT.115); details: construct 500 nM, IgG 12.5 μM-350 pM
Procedure: (§1) Binding affinities of pyridinium constructs with macromolecules were measure using Monolith NT.115 system developed by Nano Temper technology (https://nanotempertech.com/monolith/). The Monolith NT.115 equipment measures the strength of the interactions between a fluorescently labeled or intrinsically fluorescent sample and a binding partner such as a macromolecule are measured while a temperature gradient is applied over time. The molecular mobility of a fluorescently labeled construct in a thermo gradient when alone and in presence of increasing concentrations of binding partner is compared. From this, binding affinity (Kd) is calculated from a fitted curve that plots normalized fluorescence against concentration of ligand.
The experiment was conducted to measure the binding affinity of the pyridinium construct containing fluorescein with increasing concentrations of Immunoglobulin G (IgG) in presence of PBS buffer and saline. The results of the binding affinity curve at increasing concentrations of IgG in two different solutions (PBS & Saline) are shown in FIG. 16.
(§2) The IgG protein was tested at a concentration range of 12.5 μM-350 pM and the pyridinium-fluorescein construct was at a concentration of 500 nM. Likewise, for experiments involving HSA, the HSA protein was at a concentration range of 125 μM-3.5 nM and the pyridinium-fluorescein construct was at a concentration of 500 nM.

[1] = biological target: human serum albumin (HSA) (Homo sapiens, UniProt P02768); assay: Microscale thermophoresis binding affinity with HSA (Monolith NT.115); details: construct 500 nM, HSA 125 μM-3.5 nM, compared with IgG
Sequence of human serum albumin (HSA) (P02768 25-609): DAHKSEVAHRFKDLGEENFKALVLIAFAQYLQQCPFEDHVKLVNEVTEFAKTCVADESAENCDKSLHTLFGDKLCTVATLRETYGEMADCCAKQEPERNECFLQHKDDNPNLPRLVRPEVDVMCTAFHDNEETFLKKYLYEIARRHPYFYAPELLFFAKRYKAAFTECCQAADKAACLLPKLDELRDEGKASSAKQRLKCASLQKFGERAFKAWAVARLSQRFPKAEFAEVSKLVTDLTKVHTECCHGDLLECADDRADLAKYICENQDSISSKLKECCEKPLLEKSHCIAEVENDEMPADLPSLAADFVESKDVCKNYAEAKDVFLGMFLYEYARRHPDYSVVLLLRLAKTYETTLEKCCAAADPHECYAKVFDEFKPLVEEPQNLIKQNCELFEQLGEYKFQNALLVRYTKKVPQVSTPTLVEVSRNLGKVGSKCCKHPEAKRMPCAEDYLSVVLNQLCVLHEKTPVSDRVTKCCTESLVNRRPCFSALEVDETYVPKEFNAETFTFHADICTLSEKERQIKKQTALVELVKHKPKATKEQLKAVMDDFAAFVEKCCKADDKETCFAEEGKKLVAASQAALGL
Procedure: as §1, §2
The experiment was repeated with human serum albumin (HSA) instead of IgG under similar conditions. The results of the binding affinity curve at increasing concentrations of HSA in two different solutions (PBS & Saline) are shown in FIG. 17.

rabbit IgG = assay: ELISA with pyridinium-biotin construct on IgG coated, BSA blocked wells vs BSA only wells (FIG. 20); type: binding; details: PBS buffer; femtomole range of construct; avidin-HRP detection
Source text: Another variation of ELISA assay is one in which the plate wells are first coated with rabbit IgG. After a wash with PBS buffer, the IgG coated wells are blocked with bovine serum albumin (BSA) to saturate the remaining surface of the wells in order to lower background noise. A set of control wells are coated and blocked with BSA only as described above. The IgG coated and BSA blocked wells are then reacted with pyridinium-biotin construct in PBS buffer. Increasing amounts of with pyridinium-biotin construct in femtomole range are added in different wells. Those wells are washed with PBS buffer and reacted with constant amount of avidin-Horseradish peroxidase (HRP) in PBS. The colorimetric product of the reaction is then detected by an ELISA plate reader.

IgG = IgG binding experiment, free IgG measured after overnight binding (FIG. 10); set-up: species or system human; details: PBS and water conditions
Procedure: Human IgG1 or albumin shall be used as the biomolecule of interest.
In separate trials, the experiment was done in presence of water and PBS buffer solutions. The percentage of unbound IgG and pyridinium bound IgG were determined by measuring the free IgG (protein) after the protein was allowed to bind overnight with pyridinium constructs.

O=C(NCC[n+]1ccccc1)c1ccc2c(c1)C1(OC2=O)c2ccc(O)cc2Oc2cc(O)ccc21 [pyridinium-fluorescein construct, 1-(2-(3′,6′-dihydroxy-3-oxo-3H-spiro[isobenzofuran-1,9′-xanthene]-6-ylcarboxamido)ethyl)pyridinium]
pKd (Immunoglobulin G (IgG); in PBS): 7.70
pKd (Immunoglobulin G (IgG); in saline): 5.82
binding affinity to HSA ([1]; PBS solution): much lower than that of IgG
binding affinity to HSA ([1]; saline solution): comparable to that of IgG

O=C(CCCCC1SCC2NC(=O)NC21)NCC[n+]1ccccc1 (stereo not drawn) [pyridinium constructs, 1-(2-(5-(2-oxohexahydro-1H-thieno[3,4-d]imidazol-4-yl)pentanamido)ethyl)pyridinium]
binding affinity in ELISA, IgG vs BSA dilution curves (rabbit IgG): strong binding affinity of IgG even at lower concentrations when compared with that of BSA

CCCCCCCCCCCCCCCC[N+](C)(C)C.[Br-] [CTAB, Cetyl trimethylammonium bromide]
binding to IgG (IgG): did not bind to the IgG protein
